# In PubChem BioAssay (NCI):
#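 Cells were grown in 96-well plates and exposed to each compound for 48 hours at five concentrations; endpoints were interpolated linearly between bracketing concentrations, or set to the highest concentration if not reached. TGI: concentration producing complete growth inhibition.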
# Columns and labels:
# Test in all cases: NCI-60 cell line screen, 48 h
# TK-10 renal = system: TK-10 renal
# OVCAR-3 ovarian = system: OVCAR-3 ovarian
# SW-620 colon = system: SW-620 colon
# LXFL 529 NSCLC = system: LXFL 529 NSCLC
# NCI-H460 lung = system: NCI-H460 lung
# UO-31 renal = system: UO-31 renal
# K-562 leukemia = system: K-562 leukemia
# DMS 114 small cell lung = system: DMS 114 small cell lung
# OVCAR-8 ovarian = system: OVCAR-8 ovarian
# M14 melanoma = system: M14 melanoma
# UACC-257 melanoma = system: UACC-257 melanoma
# SK-MEL-2 melanoma = system: SK-MEL-2 melanoma
# DLD-1 colon = system: DLD-1 colon
# HOP-18 NSCLC = system: HOP-18 NSCLC
# UACC-62 melanoma = system: UACC-62 melanoma
# SNB-75 CNS = system: SNB-75 CNS
# HCT-116 colon = system: HCT-116 colon
# IGROV1 ovarian = system: IGROV1 ovarian
# U251 CNS = system: U251 CNS
# 786-0 renal = system: 786-0 renal
# XF 498 CNS = system: XF 498 CNS
# DMS 273 small cell lung = system: DMS 273 small cell lung
# SF-295 CNS = system: SF-295 CNS
# OVCAR-4 ovarian = system: OVCAR-4 ovarian
# OVCAR-5 ovarian = system: OVCAR-5 ovarian
# SK-MEL-5 melanoma = system: SK-MEL-5 melanoma
# KM20L2 colon = system: KM20L2 colon
# COLO 205 colon = system: COLO 205 colon
# KM12 colon = system: KM12 colon
# SR leukemia = system: SR leukemia
# M19-MEL melanoma = system: M19-MEL melanoma
# EKVX NSCLC = system: EKVX NSCLC
# ACHN renal = system: ACHN renal
# SF-268 CNS = system: SF-268 CNS
# A549 NSCLC = system: A549 NSCLC
# NCI-H522 lung = system: NCI-H522 lung
# SNB-19 CNS = system: SNB-19 CNS
# HT29 colon = system: HT29 colon
# SF-539 CNS = system: SF-539 CNS
# MALME-3M melanoma = system: MALME-3M melanoma
# LOX IMVI melanoma = system: LOX IMVI melanoma
# NCI-H23 lung = system: NCI-H23 lung
# MOLT-4 leukemia = system: MOLT-4 leukemia
# SN12C renal = system: SN12C renal
# HCC-2998 colon = system: HCC-2998 colon
# RPMI-8226 leukemia = system: RPMI-8226 leukemia
# SNB-78 CNS = system: SNB-78 CNS
# NCI-H226 lung = system: NCI-H226 lung
# HOP-62 NSCLC = system: HOP-62 NSCLC
# CAKI-1 renal = system: CAKI-1 renal
# SK-MEL-28 melanoma = system: SK-MEL-28 melanoma
# RXF 393 renal = system: RXF 393 renal
# HCT-15 colon = system: HCT-15 colon
# A498 renal = system: A498 renal
# HOP-92 NSCLC = system: HOP-92 NSCLC
# SK-OV-3 ovarian = system: SK-OV-3 ovarian
# HL-60(TB) leukemia = system: HL-60(TB) leukemia
# CCRF-CEM leukemia = system: CCRF-CEM leukemia
smiles,measurement,setting,value
CCOC(=O)[C@H]1Nc2ccc(Cl)cc2[C@H]2CCC[C@@H]12,TGI,TK-10 renal,> 100 µM
same,TGI,OVCAR-3 ovarian,> 100 µM
same,TGI,SW-620 colon,> 100 µM
same,TGI,LXFL 529 NSCLC,> 100 µM
same,TGI,NCI-H460 lung,> 100 µM
same,TGI,UO-31 renal,> 100 µM
same,TGI,K-562 leukemia,> 100 µM
same,TGI,DMS 114 small cell lung,> 100 µM
same,TGI,OVCAR-8 ovarian,> 100 µM
same,TGI,M14 melanoma,> 100 µM
same,TGI,UACC-257 melanoma,62.2 µM
same,TGI,SK-MEL-2 melanoma,> 100 µM
same,TGI,DLD-1 colon,> 100 µM
same,TGI,HOP-18 NSCLC,> 100 µM
same,TGI,UACC-62 melanoma,> 100 µM
same,TGI,SNB-75 CNS,> 100 µM
same,TGI,HCT-116 colon,> 100 µM
same,TGI,IGROV1 ovarian,> 100 µM
same,TGI,U251 CNS,> 100 µM
same,TGI,786-0 renal,> 100 µM
same,TGI,XF 498 CNS,> 100 µM
same,TGI,DMS 273 small cell lung,> 100 µM
same,TGI,SF-295 CNS,> 100 µM
same,TGI,OVCAR-4 ovarian,> 100 µM
same,TGI,OVCAR-5 ovarian,> 100 µM
same,TGI,SK-MEL-5 melanoma,> 100 µM
same,TGI,KM20L2 colon,> 100 µM
same,TGI,COLO 205 colon,> 100 µM
same,TGI,KM12 colon,> 100 µM
same,TGI,SR leukemia,> 100 µM
same,TGI,M19-MEL melanoma,> 100 µM
same,TGI,EKVX NSCLC,> 100 µM
same,TGI,ACHN renal,> 100 µM
same,TGI,SF-268 CNS,> 100 µM
same,TGI,A549 NSCLC,> 100 µM
same,TGI,NCI-H522 lung,> 100 µM
same,TGI,SNB-19 CNS,> 100 µM
same,TGI,HT29 colon,> 100 µM
same,TGI,SF-539 CNS,> 100 µM
same,TGI,MALME-3M melanoma,> 100 µM
same,TGI,LOX IMVI melanoma,> 100 µM
same,TGI,NCI-H23 lung,> 100 µM
same,TGI,MOLT-4 leukemia,> 100 µM
same,TGI,SN12C renal,> 100 µM
same,TGI,HCC-2998 colon,> 100 µM
same,TGI,RPMI-8226 leukemia,> 100 µM
same,TGI,SNB-78 CNS,> 100 µM
same,TGI,NCI-H226 lung,> 100 µM
same,TGI,HOP-62 NSCLC,> 100 µM
same,TGI,CAKI-1 renal,> 100 µM
same,TGI,SK-MEL-28 melanoma,> 100 µM
same,TGI,RXF 393 renal,64.4 µM
same,TGI,HCT-15 colon,> 100 µM
CSC1N=CNc2c1sc(=S)n2-c1ccccc1 (stereo not given),TGI,TK-10 renal,> 100 µM
same,TGI,OVCAR-3 ovarian,> 100 µM
same,TGI,SW-620 colon,> 100 µM
same,TGI,LXFL 529 NSCLC,> 100 µM
same,TGI,NCI-H460 lung,> 100 µM
same,TGI,UO-31 renal,> 100 µM
same,TGI,DMS 114 small cell lung,> 100 µM
same,TGI,OVCAR-8 ovarian,> 100 µM
same,TGI,M14 melanoma,> 100 µM
same,TGI,UACC-257 melanoma,> 100 µM
same,TGI,SK-MEL-2 melanoma,> 100 µM
same,TGI,DLD-1 colon,> 100 µM
same,TGI,HOP-18 NSCLC,> 100 µM
same,TGI,A498 renal,> 100 µM
same,TGI,UACC-62 melanoma,> 100 µM
same,TGI,SNB-75 CNS,84.7 µM
same,TGI,HCT-116 colon,> 100 µM
same,TGI,IGROV1 ovarian,> 100 µM
same,TGI,U251 CNS,> 100 µM
same,TGI,786-0 renal,> 100 µM
same,TGI,XF 498 CNS,> 100 µM
same,TGI,DMS 273 small cell lung,> 100 µM
same,TGI,SF-295 CNS,> 100 µM
same,TGI,OVCAR-4 ovarian,> 100 µM
same,TGI,OVCAR-5 ovarian,> 100 µM
same,TGI,SK-MEL-5 melanoma,> 100 µM
same,TGI,KM20L2 colon,> 100 µM
same,TGI,HOP-92 NSCLC,> 100 µM
same,TGI,COLO 205 colon,> 100 µM
same,TGI,KM12 colon,> 100 µM
same,TGI,SR leukemia,> 100 µM
same,TGI,M19-MEL melanoma,> 100 µM
same,TGI,EKVX NSCLC,> 100 µM
same,TGI,ACHN renal,> 100 µM
same,TGI,SF-268 CNS,> 100 µM
same,TGI,A549 NSCLC,> 100 µM
same,TGI,NCI-H522 lung,> 100 µM
same,TGI,SNB-19 CNS,> 100 µM
same,TGI,HT29 colon,> 100 µM
same,TGI,SF-539 CNS,> 100 µM
same,TGI,MALME-3M melanoma,> 100 µM
same,TGI,SK-OV-3 ovarian,> 100 µM
same,TGI,LOX IMVI melanoma,> 100 µM
same,TGI,NCI-H23 lung,> 100 µM
same,TGI,MOLT-4 leukemia,> 100 µM
same,TGI,SN12C renal,> 100 µM
same,TGI,HCC-2998 colon,> 100 µM
same,TGI,RPMI-8226 leukemia,> 100 µM
same,TGI,SNB-78 CNS,> 100 µM
same,TGI,NCI-H226 lung,> 100 µM
same,TGI,HOP-62 NSCLC,74.4 µM
same,TGI,CAKI-1 renal,> 100 µM
same,TGI,SK-MEL-28 melanoma,> 100 µM
same,TGI,RXF 393 renal,> 100 µM
same,TGI,HCT-15 colon,> 100 µM
CC(=O)Nc1ccc(C2C(C(=O)Nc3ccccc3)=C(C)NC(C)=C2C(=O)Nc2ccccc2)cc1,TGI,TK-10 renal,> 100 µM
same,TGI,OVCAR-3 ovarian,> 100 µM
same,TGI,SW-620 colon,> 100 µM
same,TGI,LXFL 529 NSCLC,> 100 µM
same,TGI,NCI-H460 lung,> 100 µM
same,TGI,UO-31 renal,> 100 µM
same,TGI,K-562 leukemia,> 100 µM
same,TGI,DMS 114 small cell lung,> 82.5 µM
same,TGI,OVCAR-8 ovarian,> 100 µM
same,TGI,M14 melanoma,> 100 µM
same,TGI,UACC-257 melanoma,> 100 µM
same,TGI,SK-MEL-2 melanoma,> 100 µM
same,TGI,DLD-1 colon,> 100 µM
same,TGI,HOP-18 NSCLC,> 100 µM
same,TGI,A498 renal,> 100 µM
same,TGI,UACC-62 melanoma,> 100 µM
same,TGI,SNB-75 CNS,> 100 µM
same,TGI,HCT-116 colon,> 100 µM
same,TGI,HL-60(TB) leukemia,> 100 µM
same,TGI,IGROV1 ovarian,> 100 µM
same,TGI,U251 CNS,> 100 µM
same,TGI,786-0 renal,> 100 µM
same,TGI,XF 498 CNS,> 100 µM
same,TGI,DMS 273 small cell lung,> 100 µM
same,TGI,SF-295 CNS,> 100 µM
same,TGI,OVCAR-4 ovarian,> 100 µM
same,TGI,OVCAR-5 ovarian,> 100 µM
same,TGI,SK-MEL-5 melanoma,> 100 µM
same,TGI,KM20L2 colon,> 100 µM
same,TGI,HOP-92 NSCLC,> 100 µM
same,TGI,COLO 205 colon,> 100 µM
same,TGI,KM12 colon,> 100 µM
same,TGI,M19-MEL melanoma,> 100 µM
same,TGI,EKVX NSCLC,> 100 µM
same,TGI,ACHN renal,> 100 µM
same,TGI,SF-268 CNS,> 100 µM
same,TGI,A549 NSCLC,> 100 µM
same,TGI,NCI-H522 lung,> 100 µM
same,TGI,SNB-19 CNS,> 100 µM
same,TGI,HT29 colon,> 100 µM
same,TGI,SF-539 CNS,> 100 µM
same,TGI,MALME-3M melanoma,> 100 µM
same,TGI,SK-OV-3 ovarian,> 100 µM
same,TGI,LOX IMVI melanoma,> 100 µM
same,TGI,NCI-H23 lung,> 100 µM
same,TGI,MOLT-4 leukemia,> 100 µM
same,TGI,SN12C renal,> 100 µM
same,TGI,CCRF-CEM leukemia,> 100 µM
same,TGI,HCC-2998 colon,> 100 µM
same,TGI,RPMI-8226 leukemia,> 100 µM
same,TGI,SNB-78 CNS,> 100 µM
same,TGI,NCI-H226 lung,> 100 µM
same,TGI,HOP-62 NSCLC,> 100 µM
same,TGI,CAKI-1 renal,> 100 µM
same,TGI,SK-MEL-28 melanoma,> 100 µM
same,TGI,RXF 393 renal,> 100 µM
same,TGI,HCT-15 colon,> 100 µM
